The values that follow come from US8445476B2, “Carbacephem β-lactam antibiotics” (Achaogen, Inc., priority 2007, dated 2013).

In brackets after ≈: the same amount, converted by molar mass.

Common to all, as to format: cell-based
In experiment [1] the test system is S. aureus ASAU001 (Susceptible Organism ATCC 29213). Kind of experiment: MIC assay, S. aureus ASAU001. The conditions noted are these: Staphylococcus aureus, ATCC29213, read-out: MIC ASAU 001. The method, then:
(§1) The in vitro MIC for bacterial isolates may be obtained in the following manner: a test compound is incorporated into a series of two-fold dilutions in cation adjusted Mueller-Hinton broth (CAMHB). Different bacterial strains diluted to provide a uniform inoculum are added to the CAMHB containing test compounds. A well without test compound is included for each strain as a growth control. […] The procedures used in these experiments are generally those standardized by the Clinical and Laboratory Standards Institute (CLSI), as set forth in the CLSI publication entitled “M7-A7. Methods for dilution antimicrobial susceptibility tests for bacteria that grow aerobically; approved standard-seventh edition.” (2006), which is incorporated by reference as if fully set forth herein. The following exemplifies such a procedure although it is to be understood that modifications of the procedure may be implemented as required.
(§2) Two-fold dilutions of the test compounds are prepared in CAMHB at 2× the concentration range to be tested if the compounds are soluble in aqueous solution. Alternately, dimethylsulfoxide (DMSO) is used to prepare two-fold dilutions at 10× the concentration range to be tested. Reference drugs such as cefotaxime, vancomycin or imipenem are used as positive controls. A few isolated colonies are retrieved from a pure culture prepared on an agar plate and suspended in PBS until the turbidity of the suspension matches a 0.5 McFarland standard which is equal to approximately 10^8 sCFU/mL. This solution is further diluted in CAMHB to 10^6CFU/mL if compounds are diluted in CAMHB and 5×10^5 CFU/mL if compounds are diluted in DMSO. The CAMHB plates containing the compound dilutions are combined in equal volumes with the higher density inoculum, or 10 μL of the DMSO dilutions are added to the lower density inoculum. When S. aureus is the organism being tested and the compound is oxacillin, a beta-lactam or a carbacephem compound of the present invention, 2% NaCl is added to the growth media. The plates are then incubated for 16-20 hours at 35° C. The plates are then observed to determine which concentration of the test compound is the MIC.

The test system of experiment [2] is S. aureus ASAU1028 (CA-MRSA, USA400). As to the kind of experiment: MIC assay, S. aureus ASAU1028. The conditions noted are these: Staphylococcus aureus, read-out: MIC ASAU 1028. How it is done: as §1, §2
Experiment [3] deals with S. aureus ASAU1029 (CA-MRSA, USA300). Kind of experiment: MIC assay, S. aureus ASAU1029. To be noted: Staphylococcus aureus, read-out: MIC ASAU 1029. The method, then:
as §1, §2

Experiment [4] has as its system S. aureus ASAU002 (MRSA ATCC 33591). Kind of experiment: MIC assay, S. aureus ASAU002. The conditions noted are these: Staphylococcus aureus; S. aureus ASAU002, MRSA ATCC 33591; read-out: MIC ASAU 002. The method, then:
as §1, §2

Experiment [5] deals with S. aureus ASAU1043 (MRSA, CIP, ERY, CLI, GEN resistant). Kind of experiment: MIC assay, S. aureus ASAU1043. To be noted: Staphylococcus aureus, read-out: MIC ASAU 1043. How it is done:
as §1, §2

Experiment [6] relates to S. aureus ASAU1033 (MRSA, CIP, ERY, CLIN, TET, GEN resistant). Kind of experiment: MIC assay, S. aureus ASAU1033. To be noted: Staphylococcus aureus, read-out: MIC ASAU 1033. How it is done:
as §1, §2

As to `Cc1nc(SC2=C(C(=O)O)N3C(=O)[C@@H](NC(=O)/C(=N\O)c4nc(N)sc4Cl)[C@H]3CC2)sc1C` [33/1, (6R,7S,Z)-7-(2-(2-amino-5-chlorothiazol-4-yl)-2-(hydroxyimino)acetamido)-3-(4,5-dimethylthiazol-2-ylthio)-8-oxo-1-aza-bicyclo[4.2.0]oct-2-ene-2-carboxylic Acid], the MIC is ≤ 1 µg/mL in experiment [1]; 1 to 8 µg/mL (≈ 1.89 to 15.1 µM) in experiment [2]; ≤ 1 µg/mL in experiment [3]; 1 to 8 µg/mL (≈ 1.89 to 15.1 µM) in experiment [4]; 1 to 8 µg/mL (≈ 1.89 to 15.1 µM) in experiment [5]; 1 to 8 µg/mL (≈ 1.89 to 15.1 µM) in experiment [6].

Take `Nc1nc(/C(=N/O)C(=O)N[C@@H]2C(=O)N3C(C(=O)O)=C(Sc4cscn4)CC[C@H]23)c(Cl)s1` [35/1, (6R,7S,Z)-7-(2-(2-amino-5-chlorothiazol-4-yl)-2-(hydroxyimino)acetamido)-8-oxo-3-(thiazol-4-ylthio)-1-aza-bicyclo[4.2.0]oct-2-ene-2-carboxylic Acid]: the MIC in experiment [1] was ≤ 1 µg/mL; in experiment [2] it was 1 to 8 µg/mL (≈ 2 to 16 µM); in experiment [3], 1 to 8 µg/mL (≈ 2 to 16 µM); in experiment [4], > 8 µg/mL; in experiment [5], > 8 µg/mL; in experiment [6], > 8 µg/mL.

Take `CO/N=C(\C(=O)N[C@@H]1C(=O)N2C(C(=O)O)=C(Sc3cccnc3CSC3CCNC3)CC[C@H]12)c1nc(N)sc1Cl` (stereo partly drawn) [42/1, (6R,7S,Z)-7-(2-(2-amino-5-chlorothiazol-4-yl)-2-(methoxyimino)acetamido)-8-oxo-3-(2-((pyrrolidin-3-ylthio)methyl)pyridin-3-ylthio)-1-aza-bicyclo[4.2.0]oct-2-ene-2-carboxylic Acid]: the MIC was ≤ 1 µg/mL in experiment [1]; 1 to 8 µg/mL (≈ 1.6 to 12.8 µM) in experiment [2]; 1 to 8 µg/mL (≈ 1.6 to 12.8 µM) in experiment [3]; 1 to 8 µg/mL (≈ 1.6 to 12.8 µM) in experiment [4]; > 8 µg/mL in experiment [5]; 1 to 8 µg/mL (≈ 1.6 to 12.8 µM) in experiment [6].

For the molecule `Nc1nc(/C(=N\O)C(=O)NC2C(=O)N3C(C(=O)O)=C(/C=C4\CCN(C5CCNC5)C4=O)CS[C@H]23)ns1` (stereo partly drawn) [Comparative Compound 1, reference compound], the MIC in experiment [1] is ≤ 1 µg/mL; in experiment [2] it was 1 to 8 µg/mL (≈ 1.87 to 15 µM); in experiment [3] it was ≤ 1 µg/mL; in experiment [4] it was 1 to 8 µg/mL (≈ 1.87 to 15 µM); in experiment [5], 1 to 8 µg/mL (≈ 1.87 to 15 µM); in experiment [6], 1 to 8 µg/mL (≈ 1.87 to 15 µM).
